Experimental data published in patent publication US20090317371A1, “Method, Composition, and Device, for the Treatment of Amylase Malfunctions / Inactivity in Association with Saccharides (Mainly Polysaccharides) Based Diseases” (priority 2008, published 2009).

Experiment: In-vitro testing of glucose units in a glucose solution before and after mixing with the agent
Assay type: biochemical
Details: 10 mls of 10% glucose solution (more than 600 mg/dl before)
Method: Our methods were: In-vitro testing to determine glucose units in a glucose solution before and after mixing with Amzylite against other known hypoglaycaemic agents (metformin, sulfonylurea, etc) including insulin. 10 mls of 10% concentrated glucose solution tested for glucose concentration using glucose oxidase and or hexokinase (glucometers can also be used). […] One or two capsule of Amzylite was added to the glucose solution. In-vivo: 141 type I and type II diabetics with diabetes neuropathy, in addition to 9 diabetics with renal incompetency, 15 diabetics with chronic wounds to extremities, 2 diabetics had progressive gas gangrene, all patients had neuropathy with impaired sensations to distal extremities and one none diabetic with renal failure were identified. 31 out of 141 were excluded for incomplete records. 8 self discharged. 128 classified into 4 groups: 33 on insulin therapy; 20 on insulin and oral hypoglycaemic agents, 58 on only oral hypoglycaemic therapy, 16 on diet control only. 9 with high creatinine levels, 15 with chronic wounds, 2 had gas gangrene to distal extremities and one non diabetic had renal incompetency and was on dialysis. Laboratory tests were determined before and after starting Amzylite. No placebo was given.
In-vitro testing to determine glucose units in a glucose solution before and after mixing with Amzylite against other known hypoglaycaemic agents (metformin, sulfonylurea, etc) including insulin. 10 mls of 10% concentrated glucose solution tested for glucose concentration using glucose oxidase and or hexokinase (glucometers can also be used). […] One capsule of Amzylite added to the glucose solution. For In-vivo study to determine the effectiveness of Amzylite as treatment for D.M. 141 patients with type I and type II D.M were treated with Amzylite. 31 patients were excluded for incomplete records. 8 patients' self withdrawn. […] Fasting and 2 hours postprandial blood glucose levels (HbA1c checked in some but not all patients) were determined before starting Amzylite. […] Saliva enzymes function tests were determined for disaccharides and polysaccharides in all patients. […] Improvement in patients' symptoms, daily glucose readings (fasting/2 hour postprandial) and HbA1c were set up as target and evaluation criteria. […] Changes were also determined by […]. 1—Improvement with complete recovery, 2—Significant improvement of symptoms and readings (range 70-170 mg/dl and below 200 mg/dl), 3—Improved symptoms but no change on readings, 4—Improved readings but no improvement on symptoms, 5—No change on symptoms or readings, 6—Higher or lower glucose readings. […]

[1] = one capsule of Amzylite, second study
[2] = one or two capsules of Amzylite, first study

Compound | In vitro glucose readings after mixing [1] | In vitro glucose readings after mixing [2]
CN(C)C(=N)N=C(N)N [metformin] | No changes | No changes
insulin | No changes | No changes
